According to ChEMBL document CHEMBL1629422, “Synthesis and antimicrobial evaluation of some fused heterocyclic [1,2,4]triazolo[3,4-b][1,3,4]thiadiazole derivatives” (2010):
Values after ≈ are worked out from the molar mass of the structure shown.

How the values were obtained:
Assay type in all cases: functional
[1] = tested on: Citrobacter freundii; experiment: Antimicrobial activity against Citrobacter freundii ATCC 8090 after18 to 20 hrs by broth dilution method
[2] = tested on: Staphylococcus epidermidis; experiment: Antimicrobial activity against Staphylococcus epidermidis ATCC 14990 after18 to 20 hrs by broth dilution method
[3] = tested on: Enterobacter cloacae; experiment: Antimicrobial activity against Enterobacter cloacae ATCC 49141 after18 to 20 hrs by broth dilution method
[4] = tested on: Enterococcus faecalis; experiment: Antimicrobial activity against Enterococcus faecalis ATCC 29212 after18 to 20 hrs by broth dilution method
[5] = tested on: Bacillus cereus; experiment: Antimicrobial activity against Bacillus cereus ATCC 13061 after18 to 20 hrs by broth dilution method
[6] = tested on: Acinetobacter baumannii; experiment: Antimicrobial activity against Acinetobacter baumannii ATCC 19606 after18 to 20 hrs by broth dilution method
[7] = tested on: Staphylococcus aureus; experiment: Antimicrobial activity against Staphylococcus aureus ATCC 25923 after18 to 20 hrs by broth dilution method
[8] = tested on: Escherichia coli; experiment: Antimicrobial activity against Escherichia coli ATCC 25922 after18 to 20 hrs by broth dilution method
[9] = tested on: Pseudomonas aeruginosa; experiment: Antimicrobial activity against Pseudomonas aeruginosa ATCC 27853 after18 to 20 hrs by broth dilution method
[10] = tested on: Candida albicans; experiment: Antimicrobial activity against Candida albicans ATCC 90028 after 48 hrs by broth dilution method; conditions: ATCC 90028, 48 h

SMILES | MIC [1] [µg/mL] | MIC [2] [µg/mL] | MIC [3] [µg/mL] | MIC [4] [µg/mL] | MIC [5] [µg/mL] | MIC [6] [µg/mL] | MIC [7] [µg/mL] | MIC [8] [µg/mL] | MIC [9] [µg/mL] | MIC [10] [µg/mL]
O=S(=O)(c1ccccc1)c1ccc(-c2nnc3sc(-c4ccc(Cl)cc4)nn23)cc1 | 512 (≈ 1130 µM) | 512 (≈ 1130 µM) | 512 (≈ 1130 µM) | 512 (≈ 1130 µM) | 1020 (≈ 2260 µM) | 512 (≈ 1130 µM) | 256 (≈ 565 µM) | 512 (≈ 1130 µM) | 512 (≈ 1130 µM) | 512 (≈ 1130 µM)
O=S(=O)(c1ccccc1)c1ccc(-c2nnc3sc(Nc4ccc(Br)cc4)nn23)cc1 | 1020 (≈ 2000 µM) | 512 (≈ 999 µM) | 512 (≈ 999 µM) | 1020 (≈ 2000 µM) | 1020 (≈ 2000 µM) | 512 (≈ 999 µM) | 1020 (≈ 2000 µM) | 256 (≈ 500 µM) | 512 (≈ 999 µM) | 1020 (≈ 2000 µM)
COc1ccc(Nc2nn3c(-c4ccc(S(=O)(=O)c5ccccc5)cc4)nnc3s2)cc1 | 256 (≈ 552 µM) | 128 (≈ 276 µM) | 256 (≈ 552 µM) | 64 (≈ 138 µM) | 256 (≈ 552 µM) | 128 (≈ 276 µM) | 1020 (≈ 2210 µM) | 256 (≈ 552 µM) | 256 (≈ 552 µM) | 256 (≈ 552 µM)
Cc1ccc(Nc2nn3c(-c4ccc(S(=O)(=O)c5ccccc5)cc4)nnc3s2)cc1 | 1020 (≈ 2290 µM) | 512 (≈ 1140 µM) | 512 (≈ 1140 µM) | 512 (≈ 1140 µM) | 1020 (≈ 2290 µM) | 128 (≈ 286 µM) | 1020 (≈ 2290 µM) | 256 (≈ 572 µM) | 512 (≈ 1140 µM) | 256 (≈ 572 µM)
O=S(=O)(c1ccc(Br)cc1)c1ccc(-c2nnc3sc(Nc4ccc(Br)cc4)nn23)cc1 | 1020 (≈ 1730 µM) | 512 (≈ 866 µM) | 512 (≈ 866 µM) | 128 (≈ 216 µM) | 1020 (≈ 1730 µM) | 512 (≈ 866 µM) | 512 (≈ 866 µM) | 128 (≈ 216 µM) | 512 (≈ 866 µM) | 128 (≈ 216 µM)
COc1ccc(Nc2nn3c(-c4ccc(S(=O)(=O)c5ccc(Br)cc5)cc4)nnc3s2)cc1 | 256 (≈ 472 µM) | 128 (≈ 236 µM) | 256 (≈ 472 µM) | 128 (≈ 236 µM) | 1020 (≈ 1890 µM) | 128 (≈ 236 µM) | 512 (≈ 944 µM) | 256 (≈ 472 µM) | 256 (≈ 472 µM) | 128 (≈ 236 µM)
Nc1ccc(-c2nn3c(-c4ccc(S(=O)(=O)c5ccccc5)cc4)nnc3s2)cc1 | 256 (≈ 591 µM) | 64 (≈ 148 µM) | 256 (≈ 591 µM) | 128 (≈ 295 µM) | 256 (≈ 591 µM) | 128 (≈ 295 µM) | 512 (≈ 1180 µM) | 256 (≈ 591 µM) | 256 (≈ 591 µM) | 256 (≈ 591 µM)
Cc1ccc(Nc2nn3c(-c4ccc(S(=O)(=O)c5ccc(Br)cc5)cc4)nnc3s2)cc1 | 1020 (≈ 1950 µM) | 1020 (≈ 1950 µM) | 512 (≈ 973 µM) | 512 (≈ 973 µM) | 1020 (≈ 1950 µM) | 1020 (≈ 1950 µM) | 512 (≈ 973 µM) | 256 (≈ 486 µM) | 512 (≈ 973 µM) | 128 (≈ 243 µM)
O=S(=O)(c1ccccc1)c1ccc(-c2nnc3sc(-c4ccc(Br)cc4)nn23)cc1 | 1020 (≈ 2060 µM) | 1020 (≈ 2060 µM) | 512 (≈ 1030 µM) | 1020 (≈ 2060 µM) | 1020 (≈ 2060 µM) | 1020 (≈ 2060 µM) | 512 (≈ 1030 µM) | 512 (≈ 1030 µM) | 512 (≈ 1030 µM) | 1020 (≈ 2060 µM)
COc1ccc(-c2nn3c(-c4ccc(S(=O)(=O)c5ccccc5)cc4)nnc3s2)cc1 | 512 (≈ 1140 µM) | 512 (≈ 1140 µM) | 512 (≈ 1140 µM) | 512 (≈ 1140 µM) | 512 (≈ 1140 µM) | 512 (≈ 1140 µM) | 256 (≈ 571 µM) | 512 (≈ 1140 µM) | 256 (≈ 571 µM) | 512 (≈ 1140 µM)
NCc1ccc(-c2nn3c(-c4ccc(S(=O)(=O)c5ccccc5)cc4)nnc3s2)cc1 | 1020 (≈ 2290 µM) | 512 (≈ 1140 µM) | 512 (≈ 1140 µM) | 512 (≈ 1140 µM) | 1020 (≈ 2290 µM) | 1020 (≈ 2290 µM) | 512 (≈ 1140 µM) | 256 (≈ 572 µM) | 256 (≈ 572 µM) | 512 (≈ 1140 µM)
O=S(=O)(c1ccccc1)c1ccc(-c2nnc3sc(-c4cc(O)c(O)c(O)c4)nn23)cc1 | 1020 (≈ 2200 µM) | 512 (≈ 1100 µM) | 512 (≈ 1100 µM) | 32 (≈ 68.6 µM) | 256 (≈ 549 µM) | 1020 (≈ 2200 µM) | 512 (≈ 1100 µM) | 256 (≈ 549 µM) | 128 (≈ 274 µM) | 512 (≈ 1100 µM)
O=S(=O)(c1ccccc1)c1ccc(-c2nnc3sc(-c4ccc(Cl)c(Br)c4)nn23)cc1 | 1020 (≈ 1930 µM) | 128 (≈ 241 µM) | 512 (≈ 963 µM) | 128 (≈ 241 µM) | 256 (≈ 481 µM) | 256 (≈ 481 µM) | 256 (≈ 481 µM) | 128 (≈ 241 µM) | 128 (≈ 241 µM) | 512 (≈ 963 µM)
O=S(=O)(c1ccc(Br)cc1)c1ccc(-c2nnc3sc(-c4ccc(Br)cc4)nn23)cc1 | 128 (≈ 222 µM) | 64 (≈ 111 µM) | 256 (≈ 444 µM) | 128 (≈ 222 µM) | 1020 (≈ 1780 µM) | 256 (≈ 444 µM) | 256 (≈ 444 µM) | 256 (≈ 444 µM) | 256 (≈ 444 µM) | 128 (≈ 222 µM)
O=S(=O)(c1ccc(Br)cc1)c1ccc(-c2nnc3sc(-c4ccc(Cl)cc4)nn23)cc1 | 512 (≈ 963 µM) | 128 (≈ 241 µM) | 512 (≈ 963 µM) | 64 (≈ 120 µM) | 256 (≈ 481 µM) | 256 (≈ 481 µM) | 128 (≈ 241 µM) | 128 (≈ 241 µM) | 512 (≈ 963 µM) | 1020 (≈ 1930 µM)
COc1ccc(-c2nn3c(-c4ccc(S(=O)(=O)c5ccc(Br)cc5)cc4)nnc3s2)cc1 | 512 (≈ 971 µM) | 512 (≈ 971 µM) | 1020 (≈ 1940 µM) | 512 (≈ 971 µM) | 256 (≈ 485 µM) | 256 (≈ 485 µM) | 128 (≈ 243 µM) | 256 (≈ 485 µM) | 512 (≈ 971 µM) | 512 (≈ 971 µM)
Nc1ccc(-c2nn3c(-c4ccc(S(=O)(=O)c5ccc(Br)cc5)cc4)nnc3s2)cc1 | 512 (≈ 999 µM) | 512 (≈ 999 µM) | 1020 (≈ 2000 µM) | 512 (≈ 999 µM) | 128 (≈ 250 µM) | 1020 (≈ 2000 µM) | 256 (≈ 500 µM) | 256 (≈ 500 µM) | 512 (≈ 999 µM) | 512 (≈ 999 µM)
NCc1ccc(-c2nn3c(-c4ccc(S(=O)(=O)c5ccc(Br)cc5)cc4)nnc3s2)cc1 | 1020 (≈ 1950 µM) | 1020 (≈ 1950 µM) | 1020 (≈ 1950 µM) | 512 (≈ 973 µM) | 256 (≈ 486 µM) | 1020 (≈ 1950 µM) | 512 (≈ 973 µM) | 256 (≈ 486 µM) | 128 (≈ 243 µM) | 512 (≈ 973 µM)
C[C@@H]1[C@H](O)[C@@H](C)/C=C/C=C/C=C/C=C/C=C/C=C/C=C/[C@H](O[C@@H]2O[C@H](C)[C@@H](O)[C@H](N)[C@@H]2O)C[C@@H]2O[C@](O)(C[C@@H](O)C[C@@H](O)[C@H](O)CC[C@@H](O)C[C@@H](O)CC(=O)O[C@H]1C)C[C@H](O)[C@H]2C(=O)O [AMPHOTERICIN B] | – | – | – | – | – | – | – | – | – | 2 (≈ 2.16 µM)
CC1(C)S[C@@H]2[C@H](NC(=O)[C@H](N)c3ccccc3)C(=O)N2[C@H]1C(=O)O [AMPICILLIN] | – | < 2 | – | < 2 | < 2 | – | < 2 | – | – | –
C[C@H]1[C@H](NC(=O)/C(=N\OC(C)(C)C(=O)O)c2csc(N)n2)C(=O)N1S(=O)(=O)O [AZTREONAM] | < 2 | – | – | – | – | < 2 | – | < 2 | 4 (≈ 9.19 µM) | –
